# Test results from patent US9949478B2, “Herbicidal combination with herbicidal active fatty acids and an ALS-inhibitor” (BAYER CROPSCIENCE AKTIENGESELLSCHAFT, priority 2013, dated 2018).
# Several values for one entry are separate records, joined by “and”; a condition that tells them apart may be missing. Equal entries are not always repeated.
# Experiments:
# Test in all cases: Post-emergence test
# Assay type in all cases: in vivo
# Plantago lanceolata = settings: 34 days
# Text: (§1) The following formulations of the active compounds involved were used: • fatty acids 120 EC (fatty acid mixture of two fatty acids having hydrocarbon chains of 8 and 10 carbon atoms in a ratio of 60 to 40; for the preparation see EP application number 12177824.5; title: “Emulsifiable Concentrate Formulation with Herbicidal Active Fatty Acids); application date: Jul. 25, 2012). • foramsulfuron 50 WG (water dispersible granule) standard granule formulation without adjuvants • iodosulfuron 10 WG (water dispersible granule) • (commercial formulation Destiny, approved inter alia in Australia—Bayer CropScience) • mesosulfuron 75 WG (water dispersible granule) standard granule formulation without adjuvants • thiencarbazone 70 WG (water dispersible granule) standard granule formulation without adjuvants • flazasulfuron 25 WG (water dispersible granule) • (commercial formulation Chikara, approved inter alia in Germany—product licence holder ISK Biosciences) • amidosulfuron 75 WG (water dispersible granule) • (commercial formulation Hoestar, approved inter alia in Germany—Bayer CropScience) • ethoxysulfuron 60 WG (water dispersible granule) • (commercial formulation SunRice, approved inter alia in Italy—Bayer CropScience)
# (§2) The active compound concentrations required for the tests were prepared by dilution with water. The tested active compound combinations were mixed shortly before their biological examination.
# (§3) In the case of all herbicide combinations according to the invention, for most of the test plants synergistic actions are observed (see Tables 1 to 25).
# Ranunculus repens = settings: 34 days
# Text: as §1, §2, §3
# Stellaria media = settings: 34 days
# Text: as §1, §2, §3
# Festuca ovina = system: Festuca ovina
# Text: as §1, §2, §3
# Achillea millefolium = settings: 34 days
# Text: as §1, §2, §3
# Poa annua = settings: 48 days
# Text: as §1, §2, §3
# Bellis perennis = settings: 34 days
# Text: as §1, §2, §3
# Trifolium repens = system: Trifolium repens
# Text: as §1, §2, §3
# Plantago major = system: Plantago major
# Text: as §1, §2, §3
# Taraxacum officinale = system: Taraxacum officinale
# Text: as §1, §2, §3
# Chenopodium album = system: Chenopodium album
# Text: as §1, §2, §3
# Rumex acetosa = settings: 34 days
# Text: as §1, §2, §3
# Lotus corniculatus = settings: 34 days
# Text: as §1, §2, §3
# [1] = 15 g of active compound/ha, 48 days
# [2] = 45 g of active compound/ha, 34 days
# [3] = 45 g of active compound/ha, 48 days
# [4] = 60 g of active compound/ha, 48 days
# [5] = 1 g of active compound/ha, 48 days
# [6] = 1.25 g of active compound/ha, 34 days
# [7] = 1.25 g of active compound/ha, 48 days
# [8] = 2.5 g of active compound/ha, 48 days
# [9] = 10 g of active compound/ha, 48 days
# [10] = 15 g of active compound/ha, 34 days
# [11] = 20 g of active compound/ha, 34 days
compound,measurement,setting,value
"COc1cc(OC)nc(NC(=O)NS(=O)(=O)c2cc(NC=O)ccc2C(=O)N(C)C)n1 [Foramsulfuron, 1-(4,6-dimethoxypyrimidin-2yl)-3-(2-dimethylcarbamoyl-5-formamidophenylsulfonyl)urea]",herbicidal effect [%],Plantago lanceolata; 45 g of active compound/ha,8%
same,herbicidal effect [%],Ranunculus repens; 45 g of active compound/ha,95%
same,herbicidal effect [%],Stellaria media; 45 g of active compound/ha,18%
same,herbicidal effect [%],Festuca ovina; [1],6.7%
same,herbicidal effect [%],Festuca ovina; [2],35%
same,herbicidal effect [%],Festuca ovina; [3],53%
same,herbicidal effect [%],Festuca ovina; [4],58.3% and 58%
same,herbicidal effect [%],Achillea millefolium; 45 g of active compound/ha,17%
same,herbicidal effect [%],Poa annua; 15 g of active compound/ha,18.3%
same,herbicidal effect [%],Poa annua; 45 g of active compound/ha,48%
same,herbicidal effect [%],Poa annua; 60 g of active compound/ha,73.3% and 73%
same,herbicidal effect [%],Bellis perennis; 45 g of active compound/ha,13%
same,herbicidal effect [%],Trifolium repens; [1],18.3%
same,herbicidal effect [%],Trifolium repens; [2],20%
same,herbicidal effect [%],Trifolium repens; [3],53%
same,herbicidal effect [%],Trifolium repens; [4],60%
same,herbicidal effect [%],Plantago major; [1],0%
same,herbicidal effect [%],Plantago major; [2],47%
same,herbicidal effect [%],Plantago major; [3],23%
same,herbicidal effect [%],Plantago major; [4],33.3% and 33%
same,herbicidal effect [%],Taraxacum officinale; [1],45%
same,herbicidal effect [%],Taraxacum officinale; [2],55%
same,herbicidal effect [%],Taraxacum officinale; [3],70%
same,herbicidal effect [%],Taraxacum officinale; [4],75%
same,herbicidal effect [%],Chenopodium album; [1],0%
same,herbicidal effect [%],Chenopodium album; [2],8%
same,herbicidal effect [%],Chenopodium album; [3],13%
same,herbicidal effect [%],Chenopodium album; [4],13.3% and 13%
same,herbicidal effect [%],Rumex acetosa; 45 g of active compound/ha,11%
same,herbicidal effect [%],Lotus corniculatus; 45 g of active compound/ha,0%
"COc1nc(C)nc(NC(=O)NS(=O)(=O)c2cc(I)ccc2C(=O)[O-])n1.[Na+] [Iodosulfuron-methyl sodium salt, 4-iodo-2-[(4-methoxy-6-methyl-1,3,5-triazin-2-yl)carbamoylsulfamoyl]benzoate, sodium salt]",herbicidal effect [%],Plantago lanceolata; 1.25 g of active compound/ha,3%
same,herbicidal effect [%],Ranunculus repens; 1.25 g of active compound/ha,73%
same,herbicidal effect [%],Stellaria media; 1.25 g of active compound/ha,22%
same,herbicidal effect [%],Festuca ovina; [5],0%
same,herbicidal effect [%],Festuca ovina; [6],0%
same,herbicidal effect [%],Festuca ovina; [7],0%
same,herbicidal effect [%],Festuca ovina; [8],0%
same,herbicidal effect [%],Festuca ovina; [9],6.7%
same,herbicidal effect [%],Achillea millefolium; 1.25 g of active compound/ha,5%
same,herbicidal effect [%],Poa annua; 1 g of active compound/ha,0%
same,herbicidal effect [%],Poa annua; 1.25 g of active compound/ha,0%
same,herbicidal effect [%],Poa annua; 2.5 g of active compound/ha,0%
same,herbicidal effect [%],Poa annua; 10 g of active compound/ha,0%
same,herbicidal effect [%],Bellis perennis; 1.25 g of active compound/ha,10%
same,herbicidal effect [%],Trifolium repens; [5],18.3%
same,herbicidal effect [%],Trifolium repens; [6],10%
same,herbicidal effect [%],Trifolium repens; [7],32%
same,herbicidal effect [%],Trifolium repens; [8],45%
same,herbicidal effect [%],Trifolium repens; [9],80%
same,herbicidal effect [%],Plantago major; [5],0%
same,herbicidal effect [%],Plantago major; [6],22%
same,herbicidal effect [%],Plantago major; [7],3%
same,herbicidal effect [%],Plantago major; [8],30%
same,herbicidal effect [%],Plantago major; [9],53.3%
same,herbicidal effect [%],Taraxacum officinale; [5],18.3%
same,herbicidal effect [%],Taraxacum officinale; [6],50%
same,herbicidal effect [%],Taraxacum officinale; [7],18%
same,herbicidal effect [%],Taraxacum officinale; [8],42%
same,herbicidal effect [%],Taraxacum officinale; [9],85%
same,herbicidal effect [%],Chenopodium album; [5],0%
same,herbicidal effect [%],Chenopodium album; [6],13%
same,herbicidal effect [%],Chenopodium album; [7],0%
same,herbicidal effect [%],Chenopodium album; [8],10%
same,herbicidal effect [%],Chenopodium album; [9],40%
same,herbicidal effect [%],Rumex acetosa; 1.25 g of active compound/ha,12%
same,herbicidal effect [%],Lotus corniculatus; 1.25 g of active compound/ha,0%
"COC(=O)c1ccc(CNS(C)(=O)=O)cc1S(=O)(=O)NC(=O)Nc1nc(OC)cc(OC)n1 [Mesosulfuron-methyl, methyl 2-[(4,6-dimethoxypyrimidin-2-ylcarbamoyl)sulfamoyl]-a-(methanesulfonamido)-p-toluate]",herbicidal effect [%],Plantago lanceolata; 15 g of active compound/ha,0%
same,herbicidal effect [%],Ranunculus repens; 15 g of active compound/ha,80%
same,herbicidal effect [%],Stellaria media; 15 g of active compound/ha,2%
same,herbicidal effect [%],Festuca ovina; [10],0%
same,herbicidal effect [%],Achillea millefolium; 15 g of active compound/ha,4%
same,herbicidal effect [%],Bellis perennis; 15 g of active compound/ha,5%
same,herbicidal effect [%],Trifolium repens; [10],2%
same,herbicidal effect [%],Plantago major; [10],0%
same,herbicidal effect [%],Taraxacum officinale; [10],42%
same,herbicidal effect [%],Chenopodium album; [10],3%
same,herbicidal effect [%],Rumex acetosa; 15 g of active compound/ha,2%
same,herbicidal effect [%],Lotus corniculatus; 15 g of active compound/ha,0%
"COC(=O)c1csc(C)c1S(=O)(=O)NC(=O)n1nc(OC)n(C)c1=O [Thiencarbazone-methyl, methyl 4-[(4,5-dihydro-3-methoxy-4-methyl-5-oxo-1H-1,2,4-triazol-1yl)carbonylsulfamoyl]-5-methylthiophene-3-carboxylate]",herbicidal effect [%],Plantago lanceolata; 20 g of active compound/ha,67%
same,herbicidal effect [%],Ranunculus repens; 20 g of active compound/ha,97%
same,herbicidal effect [%],Stellaria media; 20 g of active compound/ha,53%
same,herbicidal effect [%],Festuca ovina; [11],42%
same,herbicidal effect [%],Achillea millefolium; 20 g of active compound/ha,25%
same,herbicidal effect [%],Bellis perennis; 20 g of active compound/ha,28%
same,herbicidal effect [%],Trifolium repens; [11],55%
same,herbicidal effect [%],Plantago major; [11],87%
same,herbicidal effect [%],Taraxacum officinale; [11],38%
same,herbicidal effect [%],Chenopodium album; [11],23%
same,herbicidal effect [%],Rumex acetosa; 20 g of active compound/ha,52%
same,herbicidal effect [%],Lotus corniculatus; 20 g of active compound/ha,2%
